Assay results as given in patent US8980838B2, “Cyclized peptidomimetic small molecule inhibitors of the WDR5 and MLL1 interaction” (The Regents of the University of Michigan, priority 2011, dated 2015).
pIC50: −log10 of the molar value. Like-named read-outs stand apart in the source and are kept apart here. One block for each molecule: values may come before it. *1 amine or outer side, *2 acyl side, *3 side chain or, on linkers, in order; H or OH if unused. Where a SMILES comes first, the peptide text is derived from it. Bridges are numbered along the chain shown (N, C = ends). [ ]: non-standard residue; d: D form. The star is where a group is joined. dαMeLys(Me) = CN(CCCC[C@@](C)(N[*:1])C(=O)[*:2])[*:3]; dPhg(4-F) = N[C@@H](C(=O)O)c1ccc(F)cc1; dPhg = N[C@@H](C(=O)O)c1ccccc1; Isobutyryl = CC(C)C(=O)*; Abu = CC[C@H](N)C(=O)O

Target: T1, WDR5 (Homo sapiens, UniProt P61964)
T1 construct: N-terminal His-tagged WDR5Δ23 (residues 24-334) was expressed from the pET28-MHL vector; His tag (N); made in house; host or cells: Rosetta2(DE3) pLysS cells (E. coli)
Test: fluorescence-polarization based competitive binding assay
Procedure: Binding Assay Protein Expression and Purification for the Binding Assay
Cells were grown to OD600=0.4-0.6 in 4 L 2×TY at 30° C., induced with 0.1 mM IPTG at 16° C. for 16 hours and harvested in 20 mM HEPES pH 7.5, 500 mM KCl, 10% glycerol, 0.1 mg/ml PMSF, 0.05% NP40. Cells were lysed by addition of 0.2 mg/ml hen egg white lysozyme followed by sonication and clarification by centrifuging for 30 minutes at 15,000 rpm. The resin was washed 3 times for 10 minutes with 40 ml lysis buffer. His-WDR5Δ23 was eluted from the resin by 3×15 minute elutions with 20 mM HEPES pH 7.5, 100 mM KCl, 10% glycerol, 250 mM imidazole pH 7.5. […] Concentrated protein was aliquoted and samples were frozen on dry ice and stored at −80° C.
The IC50 value of the inhibitors were calculated using GraphPad Prism 4 software.
Competitive Binding Experiments
The binding affinities of the synthetic peptides shown in the study were measured using this competitive binding assay described earlier (31). A pre-incubated complex solution of WDR5Δ23 and the tracer in 120 μl assay buffer were added to dilutions of the test compound in 5 μl DMSO, giving final concentrations of WDR5Δ23 and the tracer of 4 nM and 0.6 nM, respectively. […] The plates were incubated with shaking at room temperature. The mP values were measured after five hours of incubation and Ki values were calculated using the equation described previously (32).

[1] = FP competitive binding, WDR5Δ23 4 nM, tracer 0.6 nM, five hours incubation, Table 2 series, read-out: IC50, binding affinity to WDR5
[2] = FP competitive binding, WDR5Δ23 4 nM, tracer 0.6 nM, five hours incubation, first cyclic series (Table 1), read-out: IC50, binding affinity to WDR5
[3] = FP competitive binding, WDR5Δ23 4 nM, tracer 0.6 nM, five hours incubation, Table 3 series, read-out: IC50, binding affinity to WDR5

- pIC50 [1]: > 8.00
Structure (SMILES): CC[C@@H]1NC(=O)[C@H](CCCNC(=N)N)NC(=O)[C@](C)(NC(=O)C(C)C)CCCCCCNC1=O [Compound 19b]

- pIC50 [2]: < 4.00
Structure (SMILES): CCC1(CC)NC(=O)CCCCCCCNC[C@H](CCCNC(=N)N)NC1=O [Compound 15]

- pIC50 [3]: > 6.00
Structure (SMILES): CC[C@@H]1NC(=O)[C@H](CCCNC(=N)N)NC(=O)[C@@](C)(NC(=O)C(C)C)CCCCCCNC(=O)[C@H](c2ccccc2)NC1=O [Compound 36]

- pIC50 [1]: > 6.00
Structure (SMILES): CC[C@@H]1NC(=O)[C@H](CCCNC(=N)N)NC(=O)[C@](C)(NC(=O)C(C)C)CCCCCNC1=O [Compound 19a]

- pIC50 [2]: < 4.00
Structure (SMILES): CCC1(CC)NC(=O)CCCCCNC(=O)[C@H](CCCNC(=N)N)NC1=O [Compound 4b]

- pIC50 [2]: < 4.00
Structure (SMILES): CCC1(CC)NC(=O)CCCCNC(=O)[C@H](CCCNC(=N)N)NC1=O [Compound 4a]

- pIC50 [1]: > 8.00
Structure (SMILES): CC[C@@H]1NC(=O)[C@H](CCCNC(=N)N)NC(=O)[C@](C)(NC(=O)C(C)C)CCCCCCNC(=O)[C@H](c2ccccc2)NC1=O [Compound 29c]

Structure (SMILES): CC[C@@H]1NC(=O)[C@H](CCCNC(=N)N)NC(=O)[C@](C)(NC(=O)C(C)C)CCCCN(C)C(=O)[C@@H](c2ccc(Cl)cc2)NC1=O [Compound 29f]
- pIC50: > 8.00

- pIC50 [2]: < 4.00
Structure (SMILES): CCC1(CC)NC(=O)CCCCCCCN(C(C)=O)C[C@H](CCCNC(=N)N)NC1=O [Compound 14]

- pIC50 [3]: > 6.00
Structure (SMILES): CC[C@@H]1NC(=O)[C@H](CCCNC(=N)N)NC(=O)[C@@](C)(NC(=O)C(C)C)CCCCCCCCNC1=O [Compound 34d]

- pIC50 [1]: > 8.00
Structure (SMILES): CC[C@@H]1NC(=O)[C@H](CCCNC(=N)N)NC(=O)[C@](C)(NC(=O)C(C)C)CCCCCCNC(=O)[C@@H](c2ccccc2)NC1=O [Compound 29b]

- pIC50 [1]: > 8.00
Structure (SMILES): CC[C@@H]1NC(=O)[C@H](CCCNC(=N)N)NC(=O)[C@](C)(NC(=O)C(C)C)CCCCCCCCNC1=O [Compound 19c]

Structure (SMILES): CC[C@@H]1NC(=O)[C@H](CCCNC(=N)N)NC(=O)[C@](C)(NC(=O)C(C)C)CCCCN(C)C(=O)[C@@H](c2ccccc2)NC1=O [Compound 29d] (Isobutyryl-[dαMeLys(Me)]R[Abu][dPhg]; lactam 1-C)
- pIC50: > 8.00

- pIC50 [2]: < 6.00
Structure (SMILES): CCC1(CC)NC(=O)CCCCCCCCNC(=O)[C@H](CCCNC(=N)N)NC1=O [Compound 4e]

- pIC50 [2]: < 6.00
Structure (SMILES): CCC1(CC)NC(=O)CCCCCCCNC(=O)[C@H](CCCNC(=N)N)NC1=O [Compound 4d]

- pIC50 [2]: < 4.00
Structure (SMILES): CCC1(CC)NC(=O)CCCCCCNC(=O)[C@H](CCCNC(=N)N)NC1=O [Compound 4c]

- pIC50 [3]: > 6.00
Structure (SMILES): CC[C@@H]1NC(=O)[C@H](CCCNC(=N)N)NC(=O)[C@@](C)(NC(=O)C(C)C)CCCCCCCNC1=O [Compound 34c]

Structure (SMILES): CC[C@@H]1NC(=O)[C@H](CCCNC(=N)N)NC(=O)[C@](C)(NC(=O)C(C)C)CCCCN(C)C(=O)[C@@H](c2ccc(F)cc2)NC1=O [Compound 29e] (Isobutyryl-[dαMeLys(Me)]R[Abu][dPhg(4-F)]; lactam 1-C)
- pIC50: > 8.00
